# Tests used:
# [1] = Slurry conversion experiments (XRPD of isolated solids); type: physicochemical
# Procedure: Slurry conversion experiments were conducted at RT in different solvent systems. About 15˜20 mg of freebase starting material (Compound 1) was suspended in 0.5 mL of solvent in an HPLC vial. Solids were isolated for XRPD analysis after magnetically stirring at RT.
# Slurry at 5°. Slurry conversion experiments were conducted at 5° C. in different solvent systems. About 15˜20 mg of freebase starting material (Compound 1) was suspended in 0.5 mL of solvent in an HPLC vial. Solids were isolated for XRPD analysis after magnetically stirring at 5° C.
# Slurry at 50°. Slurry conversion experiments were conducted at 50° C. in different solvent systems. About 20 mg of freebase starting material (Compound 1) was suspended in 0.5 mL of solvent in an HPLC vial. Solids were isolated for XRPD analysis after magnetical stirring at 50° C.
# Slurry at RT for Compound A. Slurry conversion experiments were conducted at RT in different solvent systems. […] Solids were isolated for XRPD analysis after magnetic stirring at RT.
# Slurry at 50° for Compound A. Slurry conversion experiments were conducted at 50° C. in different solvent systems. […] Solids were isolated for XRPD analysis after magnetic stirring at 50° C.
# Solid vapor diffusion = type: physicochemical; settings: adipate polymorph screening summary; Solid Vapor Diffusion
# Procedure: Solid vapor diffusion Compound A. Solid vapor diffusion experiments were conducted using 12 different solvents. […] The 20-mL vial was sealed with a cap and kept at RT allowing solvent vapor to interact with the sample.
# Liquid vapor diffusion = type: physicochemical
# Procedure: (§1) Liquid vapor diffusion. Liquid vapor diffusion experiments were conducted in different solvent systems. […] This solution was then placed into a 20-mL vial with 3 mL of corresponding anti-solvent. The 20-mL vial was sealed with a cap and kept at RT allowing sufficient time for organic vapor to interact with the solution. The precipitates were isolated for XRPD analysis.
# as §1, with “diffusion Compound A.” for “diffusion.”
# Slow evaporation = type: physicochemical
# Procedure: Slow evaporation. Slow evaporation experiments were performed under 10 conditions. Briefly, about 15˜20 mg of freebase starting material (810935-01-A) was dissolved in 0.5˜1.0 mL of solvent in a 3-mL glass vial.
# Slow evaporation Compound A. Slow evaporation experiments were performed under seven conditions.
# Anti-solvent addition = type: physicochemical
# Procedure: Anti-solvent addition. A total of 12 anti-solvent addition experiments were carried out. […] The obtained precipitate was isolated for XRPD analysis.
# Anti-solvent addition Compound A. A total of 14 anti-solvent addition experiments were carried out. […] The obtained precipitate was isolated for XRPD analysis.
# Slow cooling = type: physicochemical; settings: adipate polymorph screening summary; Slow Cooling
# Procedure: Slow cooling Compound A. Slow cooling experiments were conducted in four solvent systems. […] The suspension was then heated to 50° C., equilibrated for about 2 hr and filtered to a new vial using a seal membrane (PTFE, pore size of 0.45 μm). Filtrates were slowly cooled down to 5° C. at a rate of 0.1° C./min. The obtained solids were kept isothermal at 5° C. before isolation for XRPD analysis.
# [2] = Summary of polymorph screening experiments, total over all methods; type: physicochemical
# Procedure: A total of 64 polymorph screening experiments were performed for freebase Compound 1 using the sample received as starting material through different crystallization methods. As a result, Form A was obtained from polymorph screening.
# Results summarized in Table 40 were used to guide the solvent selection in polymorph screening of adipate.
# [3] = VH-XRPD analysis / transitions of forms at varying relative humidity; type: physicochemical
# Source text: FIG. 19. The sample then reverts to the original form upon reaching 30% RH. […] Transitions of Forms of Compound A at varying RH.
# [4] = Overall summary of solid form stability; settings: compared with the other identified salt forms
# Source text: Overall Summary. […] The amorphous form is considered for development purposes to be unstable for further development.
# [5] = Moisture absorption observed during XRPD test; type: physicochemical
# Procedure: Compound E Form A was obtained from acetone system. Limited solids were observed after stirring at 5° C. […] The suspension was transferred to −20° C., but limited solids were still observed. Anti-solvent (n-heptane) was added and the sample was transferred to 5° C. However, gel was obtained.
smiles,measurement,setting,value
C=CC(=O)N1CCN(c2nc(OC[C@@H]3CCCN3C)nc3c(F)c(-c4nc(N)cc(C)c4C(F)(F)F)c(Cl)cc23)[C@@H](C)C1.O=C(O)CCCCC(=O)O [adipate],Result,"[1]; adipate polymorph screening summary, Slurry at RT/50° C.","Compound A Form A, gel, clear"
same,Result,Solid vapor diffusion,Compound A Form A
same,Result,"Liquid vapor diffusion; adipate polymorph screening summary, Liquid Vapor Diffusion","Amorphous, clear, gel"
same,Result,"Slow evaporation; adipate polymorph screening summary, Slow Evaporation","Gel, clear"
same,Result,"Anti-solvent addition; adipate polymorph screening summary, Anti-solvent Addition","Compound A Form A, B, clear, gel"
same,Result,Slow cooling,Compound A Form A
same,Result,[2]; adipate polymorph screening summary,"Compound A Form A, Compound A Form"
C=CC(=O)N1CCN(c2nc(OC[C@@H]3CCCN3C)nc3c(F)c(-c4nc(N)cc(C)c4C(F)(F)F)c(Cl)cc23)[C@@H](C)C1 [Compound A],RH at which sample reverts to the original form (VH-XRPD),[3],30 % RH
same,RH at which small changes appear in VH-XRPD,[3]; changes remain up until 80% RH,44-46 % RH
same,Stability of the form for further development,[4],most stable form
"C=CC(=O)N1CCN(c2nc(OC[C@@H]3CCCN3C)nc3c(F)c(-c4nc(N)cc(C)c4C(F)(F)F)c(Cl)cc23)[C@@H](C)C1 (atropisomer, axis not shown) [Compound 1, 1-((S)-4-((R)-7-(6-amino-4-methyl-3-(trifluoromethyl)pyridin-2-yl)-6-chloro-8-fluoro-2-(((S)-1-methylpyrrolidin-2-yl)methoxy)quinazolin-4-yl)-3-methylpiperazin-1-yl)prop-2-en-1-one]",Slurry conversion result (XRPD form),"[1]; 5° C., different solvent systems",Form A and amorphous were obtained
same,Slurry conversion result (XRPD form),"[1]; 50° C., H2O",Amorphous
same,Slurry conversion result (XRPD form),"[1]; 50° C., different solvent systems",amorphous was obtained
same,Slurry conversion result (XRPD form),"[1]; 50° C., n-Heptane",Amorphous
same,Slurry conversion result (XRPD form),"[1]; RT, different solvent systems",Form A and amorphous were obtained
same,Result,"[1]; freebase polymorph screening summary, Slurry at RT/5 °C/50 °C","Form A, amorphous, gel,"
same,Result,"[1]; freebase slurry at 5° C., 2-MeTHF/n-Heptane, 1:3",Gel
same,Result,"[1]; freebase slurry at 5° C., ACN",Form A
same,Result,"[1]; freebase slurry at 5° C., DMAc/n-Heptane, 1:3",Gel
same,Result,"[1]; freebase slurry at 5° C., DMF/H2O, 1:3",Amorphous
same,Result,"[1]; freebase slurry at 5° C., Ethyl lactate/H2O, 1:3",Gel
same,Result,"[1]; freebase slurry at 5° C., IPAc/n-Heptane, 1:3",Amorphous
same,Result,"[1]; freebase slurry at 5° C., MIBK/n-Heptane, 1:3",Gel
same,Result,"[1]; freebase slurry at 5° C., NMP/H2O, 1:4",Amorphous
same,Result,"[1]; freebase slurry at 5° C., Xylene/n-Heptane, 1:3",Amorphous
same,Result,"[1]; freebase slurry at RT, 1,4-Dioxane/H2O, 1:4",Amorphous
same,Result,"[1]; freebase slurry at RT, ACN",Form A
same,Result,"[1]; freebase slurry at RT, ACN/H2O, 1:1",Form A (Low crystallinity)
same,Result,"[1]; freebase slurry at RT, Acetone/H2O, 1:4",Form A
same,Result,"[1]; freebase slurry at RT, Anisole/n-Heptane, 1:4",Gel
same,Result,"[1]; freebase slurry at RT, Benzyl alcohol/n-Heptane, 1:4",Gel
same,Result,"[1]; freebase slurry at RT, CPME/Cyclohexane, 1:4",Amorphous
same,Result,"[1]; freebase slurry at RT, DCM/n-Heptane, 1:4",Form A
same,Result,"[1]; freebase slurry at RT, EtOAc/Cyclohexane, 1:4",Amorphous
same,Result,"[1]; freebase slurry at RT, EtOH",Form A
same,Result,"[1]; freebase slurry at RT, EtOH/H2O, 1:1",Form A
same,Result,"[1]; freebase slurry at RT, IPA",Form A (Low crystallinity)
same,Result,"[1]; freebase slurry at RT, MEK/Cyclohexane, 1:4",Amorphous
same,Result,"[1]; freebase slurry at RT, MTBE",Gel
same,Result,"[1]; freebase slurry at RT, THF/n-Heptane, 1:4",Form A
same,Result,"[1]; freebase slurry at RT, Toluene/Cyclohexane, 1:4",Amorphous
same,Result,"Liquid vapor diffusion; freebase polymorph screening summary, Liquid Vapor Diffusion","Form A, amorphous, gel, clear"
same,Result,"Liquid vapor diffusion; freebase, RT, solvent 1.4-Dioxane, anti-solvent n-Heptane",Gel
same,Result,"Liquid vapor diffusion; freebase, RT, solvent 2-Butanol, anti-solvent n-Heptane",Gel
same,Result,"Liquid vapor diffusion; freebase, RT, solvent ACN, anti-solvent H2O",Form A
same,Result,"Liquid vapor diffusion; freebase, RT, solvent Acetone, anti-solvent n-Pentane",Form A
same,Result,"Liquid vapor diffusion; freebase, RT, solvent Anisole, anti-solvent n-Pentane",Gel
same,Result,"Liquid vapor diffusion; freebase, RT, solvent CPME, anti-solvent n-Pentane",Gel
same,Result,"Liquid vapor diffusion; freebase, RT, solvent DMF, anti-solvent H2O",Clear solution
same,Result,"Liquid vapor diffusion; freebase, RT, solvent DMSO, anti-solvent H2O",Amorphous
same,Result,"Liquid vapor diffusion; freebase, RT, solvent EtOAc, anti-solvent n-Pentane",Gel
same,Result,"Liquid vapor diffusion; freebase, RT, solvent IPAc, anti-solvent n-Heptane",Amorphous
same,Result,"Liquid vapor diffusion; freebase, RT, solvent THF, anti-solvent H2O",Form A (Low crystallinity)
same,Result,"Liquid vapor diffusion; freebase, RT, solvent Toluene, anti-solvent n-Heptane",Gel
same,Result,"Liquid vapor diffusion; freebase, RT, solvent Xylene, anti-solvent n-Pentane",Gel
same,Result,"Slow evaporation; freebase polymorph screening summary, Slow Evaporation","Form A, amorphous, gel"
same,Result,"Slow evaporation; freebase, evaporation at RT, 2-MeTHF",Gel
same,Result,"Slow evaporation; freebase, evaporation at RT, ACN",Form A
same,Result,"Slow evaporation; freebase, evaporation at RT, Acetone",Form A
same,Result,"Slow evaporation; freebase, evaporation at RT, DCM",Form A (Low crystallinity)
same,Result,"Slow evaporation; freebase, evaporation at RT, EtOAc",Amorphous
same,Result,"Slow evaporation; freebase, evaporation at RT, EtOH",Form A
same,Result,"Slow evaporation; freebase, evaporation at RT, IPAc",Gel
same,Result,"Slow evaporation; freebase, evaporation at RT, MEK",Amorphous
same,Result,"Slow evaporation; freebase, evaporation at RT, MeOH",Amorphous
same,Result,"Slow evaporation; freebase, evaporation at RT, THF",Amorphous
same,Result,"Anti-solvent addition; freebase polymorph screening summary, Anti-solvent Addition","Form A, amorphous, gel,"
same,Result,"Anti-solvent addition; freebase, solvent 1.4-Dioxane, anti-solvent H2O",Gel
same,Result,"Anti-solvent addition; freebase, solvent ACN, anti-solvent n-Heptane",Form A (Low
same,Result,"Anti-solvent addition; freebase, solvent Acetone, anti-solvent n-Heptane",Form A (Low
same,Result,"Anti-solvent addition; freebase, solvent Anisole, anti-solvent Cyclohexane",Gel
same,Result,"Anti-solvent addition; freebase, solvent CPME, anti-solvent n-Heptane",Amorphous
same,Result,"Anti-solvent addition; freebase, solvent DCM, anti-solvent Cyclohexane",Form A (Low
same,Result,"Anti-solvent addition; freebase, solvent DMSO, anti-solvent H2O",Low crystallinity
same,Result,"Anti-solvent addition; freebase, solvent EtOAc, anti-solvent n-Heptane",Amorphous
same,Result,"Anti-solvent addition; freebase, solvent MEK, anti-solvent Cyclohexane",Gel
same,Result,"Anti-solvent addition; freebase, solvent MeOH, anti-solvent H2O",Amorphous
same,Result,"Anti-solvent addition; freebase, solvent THF, anti-solvent H2O",Form A (Low
same,Result,"Anti-solvent addition; freebase, solvent Toluene, anti-solvent n-Heptane",Amorphous
same,Result,[2]; freebase polymorph screening summary,"Form A, amorphous, gel, clear"
"C=CC(=O)N1CCN(c2nc(OC[C@@H]3CCCN3C)nc3c(F)c(-c4nc(N)cc(C)c4C(F)(F)F)c(Cl)cc23)[C@@H](C)C1.CS(=O)(=O)O (atropisomer, axis not shown) [Compound E Form A]",Moisture behaviour of the sample during XRPD test,[5],tended to absorb moisture and turn to liquid

# — patent US12565485B2, “Solid forms of 1-((S)-4-((R)-7-(6-amino-4-methyl-3-(trifluoromethyl)pyridin-2-yl)-6-chloro-8-fluoro-2-(((s)-1-methylpyrrolidin-2-yl)methoxy)quinazolin-4-yl)-3-methylpiperazin-1-yl)prop-2-en-1-one” (Genentech, Inc., priority 2022, dated 2026)
